Source: patent publication US20240174727A1, “LONG-ACTING NATRIURETIC PEPTIDES AND USES THEREOF” (Eli Lilly and Company, priority 2022, published 2024)
Numbered stars: 1 amine (or outer) side, 2 acyl side, 3 side chain; on linkers, the order of the positions; unused ones are H or OH. Bridge positions count the residues as written; N and C are the ends. * marks the point of attachment. C20 diacid = O=C(O)CCCCCCCCCCCCCCCCCCC(=O)*; γGlu = O=C(O)[C@H](CCC(=O)[*:2])N[*:1]; CH2 = C([*:1])[*:2]

System: plasma cGMP
Assay: In vivo monkey studies, plasma cGMP ELISA
Design: species or system male cynomolgus monkeys
Details: for Net cGMP (nM) Change from Baseline 0.083 h: 0.083 h postdose; for Net cGMP (nM) Change from Baseline 0.083 h / Net cGMP (nM) Change from Baseline 0.25 h / Net cGMP (nM) Change from Baseline 0.5 h / Net cGMP (nM) Change from Baseline 1 h / Net cGMP (nM) Change from Baseline 2 h / Net cGMP (nM) Change from Baseline 4 h / Net cGMP (nM) Change from Baseline 8 h / Net cGMP (nM) Change from Baseline 12 h / Net cGMP (nM) Change from Baseline 24 h / Net cGMP (nM) Change from Baseline 36 h / Net cGMP (nM) Change from Baseline 48 h / Net cGMP (nM) Change from Baseline 72 h / Net cGMP (nM) Change from Baseline 96 h / Net cGMP (nM) Change from Baseline 120 h / Net cGMP (nM) Change from Baseline 144 h / Net cGMP (nM) Change from Baseline 168 h: monkey plasma; for Net cGMP (nM) Change from Baseline 0.25 h: 0.25 h postdose; for Net cGMP (nM) Change from Baseline 0.5 h: 0.5 h postdose; for Net cGMP (nM) Change from Baseline 1 h: 1 h postdose; for Net cGMP (nM) Change from Baseline 2 h: 2 h postdose; for Net cGMP (nM) Change from Baseline 4 h: 4 h postdose; for Net cGMP (nM) Change from Baseline 8 h: 8 h postdose; for Net cGMP (nM) Change from Baseline 12 h: 12 h postdose; for Net cGMP (nM) Change from Baseline 24 h: 24 h postdose; for Net cGMP (nM) Change from Baseline 36 h: 36 h postdose; for Net cGMP (nM) Change from Baseline 48 h: 48 h postdose; for Net cGMP (nM) Change from Baseline 72 h: 72 h postdose; for Net cGMP (nM) Change from Baseline 96 h: 96 h postdose; for Net cGMP (nM) Change from Baseline 120 h: 120 h postdose; for Net cGMP (nM) Change from Baseline 144 h: 144 h postdose; for Net cGMP (nM) Change from Baseline 168 h: 168 h postdose; for net cGMP levels (result in words): monkeys, single SC dose, plasma
Description: In vivo monkey studies were conducted as described in detail below. Young adult-to-adult male cynomolgus monkeys were given a single dose subcutaneously (SC). Blood was collected predose and at various pre-determined timepoints throughout the study period. Aliquot of cynomolgus monkey plasma was received for cyclic cGMP (cGMP) measurement and stored at −80° C. prior to use.
Control plasma was made for determining the recovery rate of spike-in cGMP using Enzo cGMP complete ELISA kit (Enzo Life Sciences, Inc, Farmingdale, NY, cat no. ADI-901-164). Briefly, blood from male Sprague Dawley rats (Inotiv, Indianapolis, IN), about 7 months old, was collected in a BD Vacutainer EDTA tube (Becton Dickinson, Franklin Lakes, NJ, cat no. BD-367856) with volume of approximate 4 mL through retro orbital bleeding. Plasma was prepared by spinning the tube in an Eppendorf Refrigerated Centrifuge 5810R (Brinkman Instruments, Inc, Westbury, NY) at 3500 rpm (3000×g) for 10 min at 4° C. Plasma was collected as Positive Control plasma. Cyclic GMP (cGMP standard from Enzo cGMP complete ELISA kit) was added to the positive control plasma at a final concentration of additional 40 nM. Positive Control and Spiked-in Control plasma were aliquoted and stored at −80° C.
The cGMP content was measured using the Enzo cGMP complete ELISA kit following the manufacturer's directions with modifications as described below. The cGMP standards provided in the kit were diluted 1:3 ranging from 50 nM to 0.023 nM in 1× assay buffer that was diluted in water from 2× assay buffer provided in the kit. The cGMP standards ([…]) were transferred to a 96-well polypropylene plate (Thermo Scientific, cat no. 442587).
Plasma samples were thawed from −80° C. and diluted 1:20 in 1× assay buffer in the above plate with a final volume of 150 μL. Assay buffer was added (150 μL) for both a non-specific binding control (in the absence of cGMP antibody) and a maximum binding control (in the absence of competing cGMP) in duplicate wells. Positive Control and Spiked-in Control plasma were diluted 1:20 in 1× assay buffer with a final volume of 150 μL in duplicate wells of the above plate. All diluted plasma was mixed by pipetting up and down several times.
Acetylation reagent mix was prepared by adding 1-part of acetic anhydride into 2-parts of triethylamine provided in the kit and mixing well using Vortex (Scientific Industries, Inc, Bohemia, NY). All controls, standards, and plasma samples were acetylated by adding 15 μL of acetylation reagent mix into the plate, one column at a time, and shaking for 1 min on a Titer Plate Shaker (Lab-Line Instrument, Inc., Melrose Park, IL) at room temperature. The plate was shaken for an additional 1 min following the acetylation of the last column to ensure the reaction was completed.
Acetylated controls, standard and plasma samples were transferred (100 μL) to an ELISA plate (n=1). Then 50 μL of cGMP conjugate were added to each well followed by the addition of 50 μL cGMP antibody to each well except for two non-specific binding wells, in which 50 μL of 1× assay buffer were added. The plate was then sealed and shaken for 2 h at room temperature on the plate shaker. Following this incubation, the plate was washed five times using 200 μL of 1× wash buffer diluted in water from 5× wash buffer provided in the kit. Then, 200 μL of para-Nitrophenylphosphate (pNpp) were added to each well. The plate was sealed with a new plate sealer and shaken in dark for 1 h at room temperature on the plate shaker. Finally, 50 μL of stop solution were added to each well to stop the enzyme reaction. The plate was then read at 405 nm using SpectraMax Plus (Molecular Devices, San Jose, CA).
The mean absorbance at 405 nm (O.D. 405 nm) for the non-specific binding controls was subtracted from the O.D. 405 nm of all samples. The subtracted O.D. 405 nm of all samples were then normalized with the mean subtracted O.D. 405 nm of the maximum binding controls as B/B0%. […]

Molecule	net cGMP levels (result in words)	Net cGMP (nM) Change from Baseline 0.083 h (dose 100 nmol/kg) [nM]	Net cGMP (nM) Change from Baseline 0.25 h (dose 100 nmol/kg) [nM]	Net cGMP (nM) Change from Baseline 0.5 h (dose 100 nmol/kg) [nM]	Net cGMP (nM) Change from Baseline 1 h (dose 100 nmol/kg) [nM]	Net cGMP (nM) Change from Baseline 2 h (dose 100 nmol/kg) [nM]	Net cGMP (nM) Change from Baseline 4 h (dose 100 nmol/kg) [nM]	Net cGMP (nM) Change from Baseline 8 h (dose 100 nmol/kg) [nM]	Net cGMP (nM) Change from Baseline 12 h (dose 100 nmol/kg) [nM]	Net cGMP (nM) Change from Baseline 24 h (dose 100 nmol/kg) [nM]	Net cGMP (nM) Change from Baseline 36 h (dose 100 nmol/kg) [nM]	Net cGMP (nM) Change from Baseline 48 h (dose 100 nmol/kg) [nM]	Net cGMP (nM) Change from Baseline 72 h (dose 100 nmol/kg) [nM]	Net cGMP (nM) Change from Baseline 96 h (dose 100 nmol/kg) [nM]	Net cGMP (nM) Change from Baseline 120 h (dose 100 nmol/kg) [nM]	Net cGMP (nM) Change from Baseline 144 h (dose 100 nmol/kg) [nM]	Net cGMP (nM) Change from Baseline 168 h (dose 100 nmol/kg) [nM]	further results
{C20 diacid-γGlu}-EKEKEKGEKPRSSCFGKRIDRIGHQSGLGCPSFRHGSPSSGAPPPS-NH2 (linker 14-30 via CH2) [Example 127]	increased net cGMP levels	–	–	–	–	–	–	–	–	–	–	–	–	–	–	–	–	Net cGMP (nM) Change from Baseline 0.083 h (dose 50 nmol/kg): -0.87 nM; Net cGMP (nM) Change from Baseline 0.25 h (dose 50 nmol/kg): 4.09 nM; Net cGMP (nM) Change from Baseline 0.5 h (dose 50 nmol/kg): 8.84 nM; Net cGMP (nM) Change from Baseline 1 h (dose 50 nmol/kg): 8.13 nM; Net cGMP (nM) Change from Baseline 2 h (dose 50 nmol/kg): 8.92 nM; Net cGMP (nM) Change from Baseline 4 h (dose 50 nmol/kg): 10.25 nM; Net cGMP (nM) Change from Baseline 8 h (dose 50 nmol/kg): 13.28 nM; Net cGMP (nM) Change from Baseline 12 h (dose 50 nmol/kg): 18.76 nM; Net cGMP (nM) Change from Baseline 24 h (dose 50 nmol/kg): 20.16 nM; Net cGMP (nM) Change from Baseline 36 h (dose 50 nmol/kg): 19.43 nM; Net cGMP (nM) Change from Baseline 48 h (dose 50 nmol/kg): 18.43 nM; Net cGMP (nM) Change from Baseline 72 h (dose 50 nmol/kg): 12.9 nM; Net cGMP (nM) Change from Baseline 96 h (dose 50 nmol/kg): 11.67 nM; Net cGMP (nM) Change from Baseline 120 h (dose 50 nmol/kg): 9.32 nM; Net cGMP (nM) Change from Baseline 144 h (dose 50 nmol/kg): 9.3 nM; Net cGMP (nM) Change from Baseline 168 h (dose 50 nmol/kg): 9.36 nM
CC[C@H](C)[C@@H]1NC(=O)[C@H](CCCNC(=N)N)NC(=O)[C@H](CC(=O)O)NC(=O)[C@H]([C@@H](C)CC)NC(=O)[C@H](CCCNC(=N)N)NC(=O)[C@H](CCCCN)NC(=O)CNC(=O)[C@H](Cc2ccccc2)NC(=O)[C@@H](NC(=O)[C@H](CO)NC(=O)[C@H](CO)NC(=O)[C@H](CCCNC(=N)N)NC(=O)[C@H](CCCNC(=N)N)NC(=O)[C@H](Cc2ccncc2)NC(=O)[C@H](CO)NC(=O)CNC(=O)[C@H](CCCCN)NC(=O)[C@H](CCC(=O)O)NC(=O)[C@H](CCCCN)NC(=O)[C@H](CCC(=O)O)NC(=O)[C@H](CCCCN)NC(=O)[C@H](CCC(=O)O)NC(=O)CC[C@H](NC(=O)CCCCCCCCCCCCCCCCC(=O)O)C(=O)O)CSCSC[C@@H](C(=O)N2CCC[C@H]2C(=O)N[C@@H](CO)C(=O)N[C@@H](Cc2ccccc2)C(=O)N[C@@H](CCCNC(=N)N)C(=O)N[C@@H](Cc2c[nH]cn2)C(=O)NCC(=O)NCC(=O)N[C@@H](CCCCN)C(=O)N[C@@H](CO)C(=O)N[C@@H](CO)C(=O)NCC(=O)N[C@@H](C)C(=O)N2CCC[C@H]2C(=O)N2CCC[C@H]2C(=O)N2CCC[C@H]2C(=O)N[C@@H](CO)C(N)=O)NC(=O)CNC(=O)[C@H](CC(C)C)NC(=O)CNC(=O)[C@H](CO)NC(=O)[C@H](Cc2ccc(O)cc2)NC(=O)[C@H](Cc2c[nH]cn2)NC(=O)CNC1=O [Example 81]	increased net cGMP levels	5.6	32.08	37.47	43.98	38.64	31.25	23.05	27.6	22.83	24.25	15.44	12.4	10.48	12.63	9.54	7	–
(BFAEN2-βAla)-EKEKEKG-PEG24-EK-βAla-RSS[CFGKRIDRIGHQSGLGC]PSFRHGSPSSGAPPPS-NH2 (EKXRSSCFGKRIDRIGHQSGLGCPSFRHGSPSSGAPPPS; BFAEN2-βAla, PEG24, C-terminal amide; MOD_RES 1 N-terminal modified with (BFAEN2-beta-Ala)-EKEKEKG-PEG24-; wherein BFAEN2 is Bifurcated Fatty Acid Enantiomer 2; SITE 3 X at position 3 is beta-Alanine; MOD_RES 39 Amidation; DISULFID 7..23 Intrachain thioacetal bond) [Example 144]	increased net cGMP levels	5.9	18.26	27.08	36.51	35.21	27.1	20.15	13.2	10.23	9.57	7.11	5.22	6.83	3.5	4.48	8.71	–
